One assay has as its system TNFα. Put plainly: Inhibition of TNFα in LPS-stimulated macrophage cell cultures (ELISA). The format is cell-based. The following applies: LPS-stimulated macrophages. The text has this: (§1) Evaluation of the therapeutic effects of the novel PRS-211 compounds has now been carried out in a series of experimental systems to support the utility of these drugs as neuroprotectants, anti-inflammatory agents and anti-oxidative agents. These effects have been evaluated both in vitro and in vivo, and have been corroborated utilizing the following systems: • (a) Binding to the NMDA receptor linked channel: Non competitive antagonists of NMDA, the primary example of which is the compound MK-801, bind to a site within the NMDA receptor channel thus preventing the activation of the receptor-channel complex and the consequent neurotoxicity. The ability of various compounds to compete with the binding of tritium labeled MK-801 to brain membranes is considered a measure of their potency as NMDA non-competitive antagonists. • (b) Inhibition of prostaglandin production: The inhibitory effect of the new derivatives of Dexanabinol on prostaglandin synthesis is evaluated in macrophage cell cultures following LPS exposure to induce the inflammatory response. These assays are an indication of the anti-inflammatory activity of the individual analogs. • (c) Inhibition of Tumor Necrosis Factor Alpha: Specific aspects of the inflammatory response cascade are mediated by the cytokine TNFα. Inhibition of TNFα production and/or inhibition of TNFα release by the new analogs are assayed in macrophage cell cultures activated with LPS. This serves as another indication of the general anti-inflammatory potential of the novel compounds. • (d) Nitric Oxide Assay: As one aspect of the anti-oxidative potential of the novel analogs they were tested for their ability to inhibit the enzyme nitric oxide synthase (NOS). This assay can also serve as another indication of the anti-inflammatory cascade, as well as the anti-oxidative mechanisms. • (e) Ear Edema model: The anti-inflammatory activity of the new analogs is screened using an ear edema model in mice. This test system utilizes Croton oil or Arachidonic acid as inflammation inducers. The ability of the test compounds to prevent or diminish the inflammatory response to these stimulants is indicative of their systemic anti-inflammatory capability. • (f) Improved clinical outcome after closed head injury in rats: Severe head injury is associated with high mortality and severe neurological impairment. Animals subjected to head trauma in a controlled fashion serve as models in which to test drugs of therapeutic potential. Test compounds can be evaluated both for improved clinical outcome and for reduction of edema induced by closed head injury. The ability of compounds to reduce the severity of neurological symptoms and to reduce brain edema is considered a measure of their potency in reducing brain damage. • (g) Transient Middle cerebral artery occlusion (MCAo): The middle cerebral artery is the cerebral blood vessel most susceptible to stroke in humans. In animals, coagulation, permanent ligation or permanent placement of an occluding thread in the artery produces a permanent focal stroke affecting the MCA territory. Transient ligation or occlusion results in transient focal stroke. Both transient and permanent focal strokes result in varying degrees of edema and infarction in the affected brain regions. The ability of compounds to reduce the volumes of edema and infarction is considered a measure of their potential as anti-stroke treatment. • (h) Optic Nerve Crush: Application of mechanical pressure to the rat optical nerve results in crush injury of the axons, which is accompanied by immediate changes in oxidative metabolism and delayed axonal death and blindness. […]

In another assay the test system is ear edema model in mice. Put plainly: Ear edema model. The format is in vivo. The following applies: Mus musculus, Croton oil (CO) as inducer, IP.
Description: as §1

Assay [1] relates to transient middle cerebral artery occlusion in rats. Put plainly: Transient middle cerebral artery occlusion (MCAo), infarct size evaluation. Type of assay: in vivo. The text has this: Experimental design. The design was a randomized one, performed in a masked fashion as to whether drug or vehicle was being given, and an attempt was made to generate approximately equal numbers of drug- and vehicle-treated animals.
• a. Male rats (8 /treatment group) 320-380 gr. (Harlan Israel). • b. Halothane (Rhone Poulenc France) • c. Pentobarbitone (Pental Veterinary, CTS Israel). • d. Poly - L - Lysine (Sigma, USA). • e. Silk suture material 3-0 and 4-0. • f. Nylon (Polyamid) suture material 3-0. Four cm pieces were cut and positioned in a solution of 1% Poly - L - Lysine for 1 minute and dried in an oven (60 ° C) for 60 minutes. The tip of each piece was rounded under a flame. • g. Saline (Teva Medical). • h. Blank cremophor ethanol cosolvent (Pharmos). • i. Dexanabinol in cremophor ethanol cosolvent 50 mg/ml. (Both Dexanabinol and its vehicle were diluted in saline prior to drug administration. • j. Analogs PRS-211,092, PRS-211,095, PRS-211,128 PRS-211,132 and PRS-211,220 in cremophor ethanol cosolvent, 50 mg/ml. • k. The analogs were diluted in saline prior to drug administration.
• a. Surgical details of the MCAo method used for testing dexanabinol analogs, are presented in Belayev, et al., (Belayev, Busto, Weizhao, and Ginsberg, Stroke 26:2313-2319, 1995) which is incorporated herein in its entirety by reference. • b. Two hours after the start of MCAO, the animals were reanesthetized with halothane, the neck wound was re-opened and the nylon thread pulled out of the Internal carotid artery (ICA). The skin wound was then closed with 3-0 silk suture material and the animals allowed to recover from the anesthesia. • c. Three sets of animals were tested. In the first test immediately (2+0 hours) before thread removal the animals were injected IV with either analogs PRS-211,095, PRS-211,128, PRS-211,132, or Dexanabinol (PRS-211,007) each at a dosage of 5 mg/kg. One group of animals was treated with 5ml/kg vehicle alone. In another group, the animals subjected to "sham" operation, the suture was passed into the ICA, as described above, but immediately withdrawn. In the second set dexanabinol, PRS-211,092, PRS-211,095 and PRS-211,220 were used, at 2+0 hours. In the third set dexanabinol, PRS-211,092, PRS-211,095 and PRS-211,220 were administered 1 hour after thread removal (2+1 hours). Laser Doppler Flow (LDF) determined the success of MCAo - a drop of more then 50% in cerebral blood flow was considered as a sign of successful MCAo. Although LDF was a helpful corroborative sign, clinical outcome remained the final inclusion/exclusion criterion, since, with the exception of the PRS-211,220 staircase study, LDF was introduced only after initiation of the study.
A detailed investigation of neurological performance was carried out on the first, third and the 7th day after the MCAo. Two parameters were examined: posture and the flexion reflex (based on Nokon and Chuang, NeuroReport 9, 1998: 2081-2084). Animals were scored according to their performance:
One week after the ischemic insult, animals were euthanized with pentobarbitone 100 mg/kg IP. The animals were perfused through the heart with heparinized 4% formaldehyde solution in PBS (pH 7.4). Brains were then removed, and kept in the same solution before preparation for histological evaluation of the brain infarct volume.

Another assay relates to NMDA receptor. Put plainly: Radioligand binding: displacement of [3H]MK-801 from rat forebrain membranes. The following applies: for NMDA receptor binding / affinity: MK-801 binding to membranes.
Description: as §1

Another assay has as its system PGE2. Put plainly: Inhibition of prostaglandin synthesis (PGE2) in LPS-stimulated macrophage cell cultures. Type of assay: cell-based. Particulars: LPS-stimulated macrophages.
Description: as §1

For assay [2], the system named is Nitric Oxide Synthase (NOS). Put plainly: Inhibition of nitric oxide synthase (nitrite fluorimetric assay, LPS-stimulated macrophage cultures). Type of assay: cell-based. Particulars: LPS-stimulated macrophages.
Description: as §1

The mark [3] stands for this setting: displacement of [3H]MK-801, rat forebrain membranes, read-out: NMDA BINDING IC50.

The values that follow come from patent publication EP1785417A2, “Novel non-psychotropic cannabinoids” (priority 2000, dated 2001).

Where two headings read alike, the source gives them in different places.

With `CCCCCCC(C)(C)c1cc(O)c2c(c1)OC(C)(C)[C@H]1CC=C(CN3CCCC3)C[C@H]21` (stereo in doubt) [211,128-000], the results for the inhibition at 10 µM (in the assay with TNFα; in the assay with PGE2; in assay [2]) were 48%, 84% and 27%, respectively. Besides, the 50% effective dose (ED50) in the assay on ear edema model in mice came out at 23 µmol/kg. The “function, reduction of mortality and brain morphometry” value in assay [1] is “inactive”. The Mortality rate entry in assay [1] (5 mg/kg IV at 2+0 hours) is reported as “around 25%”. Further, the “NMDA receptor binding / affinity” value in the assay with NMDA receptor is on record as “no detectable affinity”. Besides, the IC50 at NMDA receptor ([3H]MK-801 binding, text to Figure 2, read-out: mean IC50) was over 20 µM; on NMDA receptor (setting [3]) it was over 20 µM.
In the case of `CCCCCCC(C)(C)c1cc(O)c2c(c1)OC(C)(C)[C@H]1CC=C(CNC(C)=O)C[C@H]21` [211,044-000], the inhibition at 10 µM in the assay on TNFα is 0%; in the assay on PGE2, 24%. For the same compound, on NMDA receptor (setting [3]), the IC50 is 6 µM.
As to `CCCCCCC(C)(C)c1cc(O)c2c(c1)OC(C)(C)[C@H]1CC=C(CN3CCC(C)CC3)C[C@H]21` (single isomer, unassigned) [211,251-000], the inhibition at 10 µM with TNFα came out at 0%; in the assay on PGE2, 91%; in assay [2], 37%. For the same compound, in the assay on NMDA receptor, the “NMDA receptor binding / affinity” value is “do not exhibit substantial NMDA receptor binding”. Also, the IC50 on NMDA receptor (setting [3]) is over 100 µM.
For `CCCCCCC(C)(C)c1cc(O)c2c(c1)OC(C)(C)[C@H]1CC=C(Cc3ccccc3)C[C@H]21` [211,119-000], the IC50 on NMDA receptor (setting [3]) came to 62 µM. Testing at 10 µM with PGE2 gave an inhibition of 14%.
As to `CCCCCCC(C)(C)c1cc(O)c2c(c1)OC(C)(C)[C@H]1CC=C(CN3CC=CCC3)C[C@H]21` [211,145-000], the figures for the inhibition at 10 µM (in the assay with TNFα; with PGE2; in assay [2]) were 15%, 63% and 60%, respectively. The IC50 on NMDA receptor (setting [3]) worked out at 13 µM.
Regarding `CCCCCCC(C)(C)c1cc(O)c2c(c1)OC(C)(C)[C@H]1CC=C(CN3CCNCC3)C[C@H]21` [211,133-000], at NMDA receptor (setting [3]), the IC50 is over 100 µM.
For `CCCCCCC(C)(C)c1cc(O)c2c(c1)OC(C)(C)[C@H]1CC=C(Cn3cncn3)C[C@H]21` [211,102-000], at NMDA receptor (setting [3]), the IC50 was determined as 2.5 µM.
As for `CCCCCCC(C)(C)c1cc(O)c2c(c1)OC(C)(C)[C@H]1CC=C(Cn3cnnc3)C[C@H]21` [211,103-000], the IC50 at NMDA receptor (setting [3]) is 3 µM.
For the compound `CCCCCCC(C)(C)c1cc(O)c2c(c1)OC(C)(C)[C@H]1CC=C(CN3CCC(N4CCCC4)CC3)C[C@H]21` [211,253-000], the inhibition at 10 µM in the assay with TNFα is 0%; in the assay with PGE2 it was 92%; in assay [2] it was 27%. Also, the “NMDA receptor binding / affinity” value in the assay with NMDA receptor is listed as “do not exhibit substantial NMDA receptor binding”. For the same compound, the 50% inhibitory concentration (IC50) on NMDA receptor (setting [3]) was over 100 µM.
Consider `CCCCCCC(C)(C)c1cc(O)c2c(c1)OC(C)(C)[C@H]1CC=C(CC#N)C[C@H]21` [211,006-000], for which the results for the inhibition at 10 µM (in the assay on TNFα; in the assay with PGE2; in assay [2]) were 46%, 41% and 19%, respectively. Besides, in the assay on ear edema model in mice, the ED50 came out at 104 µmol/kg. For the same compound, on NMDA receptor (setting [3]), the IC50 came out at 8 µM.
`CCCCCCC(C)(C)c1cc(O)c2c(c1)OC(C)(C)[C@H]1CC=C(CN3CC=CC3)C[C@H]21` [211,212-000]: the inhibition at 10 µM was 14% in the assay with TNFα, 96% with PGE2 and 0% in assay [2]. The IC50 at NMDA receptor (setting [3]) is 7.5 µM.
With `CCCCCCC(C)(C)c1cc(O)c2c(c1)OC(C)(C)[C@H]1CC=C(C[S+](C)[O-])C[C@H]21` (some centres unmarked) [211,041-000], the inhibition at 10 µM with TNFα is 23%; in the assay with PGE2, 56%; in assay [2] it was 72%. This compound had an ED50 in the assay with ear edema model in mice of 39 µmol/kg. The half-maximal inhibitory concentration (IC50) at NMDA receptor (setting [3]) worked out at 6 µM.
For the compound `CC(C)(C)c1cc(O)c2c(c1)OC(C)(C)[C@H]1CC=C(CO)C[C@H]21` [211,047-000], the inhibition at 10 µM in the assay with TNFα is 0%; with PGE2, 28%. In addition, the IC50 at NMDA receptor (setting [3]) stood at 100 µM.
Consider `CCCCCCC(C)(C)c1cc(O)c2c(c1)OC(C)(C)[C@H]1CC=C(CN(Cc3ccccc3)c3ccccc3)C[C@H]21` [211,255-000], for which the inhibition at 10 µM in the assay with TNFα came to 0%; in the assay on PGE2, 94%; in assay [2], 7%. Also, the “NMDA receptor binding / affinity” value with NMDA receptor is “do not exhibit substantial NMDA receptor binding”. For the same compound, the IC50 on NMDA receptor (setting [3]) was over 100 µM.
In the same order, the values of `CCCCCCC(C)(C)c1cc(O)c2c(c1)OC(C)(C)[C@H]1CC=C(CN3CCC(N4CCCCC4)CC3)C[C@H]21` (single isomer, unassigned) [211,257-000] are 10%, 88%, 39%, “do not exhibit substantial NMDA receptor binding” and over 100 µM.
As to `CCCCCCC(C)(C)c1cc(O)c2c(c1)OC(C)(C)[C@H]1CC=C(Cc3cccs3)C[C@H]21` [211,118-000], on NMDA receptor (setting [3]), the concentration for half-maximal inhibition (IC50) came to 32 µM.
Regarding `CCCCCCC(C)(C)c1cc(O)c2c(c1)OC(C)(C)[C@H]1CC=C(CN3CCCCC3)C[C@H]21` (stereo in doubt) [211,159-000], the inhibition at 10 µM worked out at 33% in the assay on TNFα, 87% with PGE2 and 27% in assay [2]. Moreover, the IC50 on NMDA receptor (setting [3]) is over 20 µM.
The like results for `CCCCCCC(C)(C)c1cc(O)c2c(c1)OC(C)(C)[C@H]1CC=C(COCC(O)CO)C[C@H]21` (some centres unmarked) [211,211-000] were, in that order, 18%, 83%, 0% and 4.6 µM.
Consider `CCCCCCC(C)(C)c1cc(O)c2c(c1)OC(C)(C)[C@H]1CC=C(CN3CCNC(C)C3)C[C@H]21` (some centres unmarked) [211,134-000], for which the IC50 at NMDA receptor (setting [3]) is over 100 µM.
